Molecules are shown by their SMILES.

As to `CCCCc1cssc1=S`, the logP stood at 3.7.
To `Cc1ssc(=O)c1C` belongs 1.73; to `S=c1ssc2c1CCC2`, 2.53.
On to `S=c1ssc2c1CCCCCC2`, for which the logP stood at 3.75.
To `CCc1ssc(=O)c1CC` belongs 2.78.
For `Cc1ccc(-c2cc(=S)ss2)cc1` the value was 4.26; for `CCc1cc(=O)ss1`, 1.69; for `S=c1sscc1-c1ccccc1`, 3.2.
`CCc1ssc(=O)c1-c1ccccc1` displayed a logP of 3.15.
For `Cc1cc(=O)ss1` the value was 1.26; for `S=c1cc(-c2ccccc2)ss1`, 3.67.
For `CCc1ssc(=S)c1-c1ccccc1` the value was 3.52; for `Cc1cssc1=O`, 1.33.
For `S=c1ssc2c1CCCCC2` the value was 3.27.
Consider `Cc1ssc(=S)c1Cc1ccccc1`, for which the logP worked out at 3.78.
Turning to `CCc1ssc(=S)c1C`, the logP was determined as 2.95.
For `O=c1sscc1-c1ccccc1` the value was 2.64.
`COc1ccc(-c2ssc(=S)c2C)cc1` returned a logP of 4.1.
For the compound `CCc1ssc(=S)c1CC`, the log partition coefficient (logP) was found to be 3.51.
For `Cc1ssc(=S)c1C` the value was 2.45.
`Cc1ssc(=S)c1-c1ccccc1` had a logP of 3.17.
On to `S=c1ccss1`, for which the logP turned out to be 1.58.
To `CCCc1ssc(=S)c1CC` belongs 3.76; to `CCCc1cssc1=O`, 2.38.
In turn, `CCCc1c(C)ssc1=O` showed a logP of 2.96.
For `S=c1ssc2ccccc12` the value was 3.57.
`Cc1cssc1=S` displayed a logP of 2.18.
The compound `O=c1ssc2c1CCCC2` registered a logP of 2.4.
To `Cc1cc(=S)ss1` belongs 1.89; to `CCCc1ssc(=S)c1C`, 3.42; to `CCCc1cc(=O)ss1`, 2.24.
To `CCc1cssc1=O` belongs 1.9; to `O=c1ccss1`, 0.82.
For `Cc1c(-c2ccccc2)ssc1=S` the value was 3.95; for `O=c1cc(-c2ccccc2)ss1`, 3.01.
Turning to `Cc1ssc(=O)c1-c1ccccc1`, the logP came out at 2.93.
For `CCc1cc(=S)ss1` the value was 2.31; for `CCCc1cssc1=S`, 3.18.
For `CCc1cssc1=S` the value was 2.67.
To `CCCCCc1cssc1=S` belongs 4.06.
As to `CCCc1c(C)ssc1=S`, the logP came to 3.39.
To `S=c1cc(Cc2ccccc2)ss1` belongs 3.43; to `COc1ccc(-c2cc(=S)ss2)cc1`, 3.82; to `Cc1ccc(-c2cssc2=S)cc1`, 3.73.
For `CCc1c(C)ssc1=S` the value was 2.94; for `CCCc1cc(=S)ss1`, 2.83.
For `O=c1ssc2ccccc12` the value was 2.73.

Source of the values: the OPERA property sets (Mansouri et al. 2018).
